The first experiment concerns Phosphorylation of STAT6 in human A549 cells. In words: Phosphorylated STAT6 (pSTAT6) flow cytometry assay in human A549 cells. Format: cell-based. Particulars: listed as I-394, read-out: STAT6 IL4 pSTAT6 assay in A549 cells: Average IC50. An excerpt:
Example 3. Phosphorylated STAT6 (pSTAT6) Flow Cytometry Assay in Human A549 Cells
Phosphorylation of STAT6 in human A549 cells was quantitatively measured using flow cytometry technology.
(In general: A flow cytometer gives signals particle by particle.)
Consider `CCC1CN(C)CC1c1cc(C2=CCCN(C(=O)CCn3ccnn3)C2)c(F)c2[nH]c(C(=O)N3CCN(c4ncc(F)cc4OC)CC3)cc12` (centres unmarked) [Example I-1209, 1-[5-[4-(4-ethyl-1-methyl-pyrrolidin-3-yl)-7-fluoro-2-[4-(5-fluoro-3-methoxy-2-pyridyl)piperazine-1-carbonyl]-1H-indol-6-yl]-3,6-dihydro-2H-pyridin-1-yl]-3-(triazol-1-yl)propan-1-one], for which the IC50 is greater than 100000 nM.

The same experiment, now with this note: read-out: STAT6 IL4 pSTAT6 assay in A549 cells: Average IC50.
Consider `CCc1cc(C)ncc1-c1cc(C2=CCCN(C(=O)CCn3cccn3)C2)c(F)c2[nH]c(C(=O)N3Cc4cnn(CC)c4C3)cc12` [Example I-537], for which the IC50 is less than 100 nM.
The same measure, in the same setting: next, `COc1ccccc1-c1cc(C2=CCCN(C(=O)CCn3ccnn3)C2)c(F)c2[nH]c(C(=O)N3CCN(c4nccc5[nH]ccc45)CC3)cc12` [Example I-966]: less than 100 nM.
On the same count and under the same terms, next, `COc1ccccc1-c1cc(C2=CCCN(C(=O)CCn3ccnn3)C2)c(F)c2[nH]c(C(=O)N3CCN(c4cc(F)c5nc(C)n(C(C)C)c5c4)CC3)cc12` [Example I-340]: less than 100 nM.
Consider `COC(=O)c1cnn(-c2cc(C3=CCCN(C(=O)CCn4ccnn4)C3)cc3cc(C(=O)N(C)C)oc23)c1` [Example I-1049], for which the IC50 is 100 to 1000 nM.
On to `CCc1cc(C(F)F)ncc1-c1cc(C2=CCCN(C(=O)CCn3ccnn3)C2)c(F)c2[nH]c(C(=O)N3Cc4cnn(CC)c4C3)cc12` [Example I-767], for which the IC50 is greater than 100000 nM.
In the case of `CCc1cnccc1-c1cc(C2=CCCN(C(=O)CCn3cccn3)C2)c(F)c2[nH]c(C(=O)N3CCN(c4ncc(OC)cc4OC)CC3)cc12` [Example I-684], the IC50 was less than 100 nM.
Still for that read-out and setting: next, `CCc1nc(C)ccc1-c1cc(C(=O)N2CCN(c3ncc(F)cc3OC)CC2)cc2cc(C3=CCCN(C(=O)CCn4ccnn4)C3)n(CC(C)C)c12` [Example I-524]: less than 100 nM; `COC(=O)N1CCN(C(=O)c2cc3c(-c4ccccc4OC)cc(C4=CCCN(C(=O)CCn5ccnn5)C4)c(F)c3[nH]2)CC1` [Example I-988]: less than 100 nM.
On the same count and under the same terms, next, `COc1cnccc1-c1cc(C2=CCCN(C(=O)CCn3ccnn3)C2)cc2cc(C(=O)N(C)C)oc12` [Example I-1067]: less than 100 nM; “(R)-5-(1-(2-formyl-1,2,3,4-tetrahydroisoquinoline-3-carbonyl)-1,2,5,6-tetrahydropyridin-3-yl)-7-(2-methoxyphenyl)-N,N-dimethylbenzofuran-2-carboxamide [Example I-804]”: greater than 100000 nM.
Same read-out and setting: next, `COc1ccccc1-c1cc(C2CCCN(C(=O)CCn3ccnn3)C2)c(F)c2[nH]c(C(=O)N3CCN(c4ncccc4OC)CC3)cc12` (centres unmarked) [Example I-348]: less than 100 nM; `COc1ccccc1-c1cc(C2=CCCN(C(=O)CCn3ccnn3)C2)c(F)c2[nH]c(C(=O)N3CCN(c4ccc5nn(C)cc5c4C)CC3)cc12` [Example I-945]: 100 to 1000 nM.
In the case of `COc1cnccc1-c1cc(C2=CCCN(C(=O)CCn3ccnn3)C2)c(F)c2[nH]c(C(=O)N3CCN(c4ncccc4OC4CC4)CC3)cc12` [Example I-593], the IC50 is less than 100 nM.
Still for that read-out and setting: next, `CN(C)C(=O)c1cc2c(F)c(C3=CCCN(C(=O)C4Cc5ccccc5CN4C=O)C3)ccc2o1` (centres unmarked) [Example I-1192]: 1000 to 10000 nM; `COc1ccccc1-c1cc(C2=CCCN(C(=O)CCn3ccnn3)C2)c(F)c2[nH]c(C(=O)N3CCN(c4cc5cccnc5cc4F)CC3)cc12` [Example I-924]: less than 100 nM.
On the same count and under the same terms, next, `CCOC(=O)c1cc2ccc(N3CCN(C(=O)c4cc5c(-c6ccccc6OC)cc(C6=CCCN(C(=O)CCn7ccnn7)C6)c(F)c5[nH]4)CC3)cn2c1` [Example I-903]: 100 to 1000 nM; `CCc1cccnc1N1CCN(C(=O)c2cc3c(-c4ccccc4OC)cc(C4=CCCN(C(=O)CCn5ccnn5)C4)c(F)c3[nH]2)CC1` [Example I-327]: less than 100 nM; `COc1ccccc1N1CCN(C(=O)c2cc3c(-c4cc(F)cc(F)c4OC)cc(C4=CCCN(C(=O)CCn5ccnn5)C4)c(F)c3[nH]2)CC1` [Example I-601]: less than 100 nM.
In the case of `COc1ccccc1-c1cc(C2=CCCN(C(=O)CCn3ccnn3)C2)c(F)c2[nH]c(C(=O)N3CCN(c4c(O)ccc5ccccc45)CC3)cc12` [Example I-965], the IC50 lay within 100 to 1000 nM.
Consider `CN(C)C(=O)c1cc2cc(C3=CCCN(C(=O)CCc4nccs4)C3)ccc2o1` [Example I-815], for which the IC50 lay within 100 to 1000 nM.
In the case of `COc1ccncc1-c1cc(C2=CCCN(C(=O)CCn3ccnn3)C2)c(F)c2[nH]c(C(=O)N3CCN(c4ncc(F)cc4OC)CC3)cc12` [Example I-428], the IC50 is less than 100 nM.
The same measure, in the same setting: next, `CCc1cc(C)ncc1-c1cc(C2=CCCN(C(=O)CC(=O)O)C2)c(F)c2[nH]c(C(=O)N3Cc4cnn(CC)c4C3)cc12` [Example I-788]: less than 100 nM.
Same read-out and setting: next, `COc1cc(Cl)cnc1N1CCN(C(=O)c2cc3c(-c4cccnc4OC)cc(C4=CCCN(C(=O)CCn5ccnn5)C4)c(F)c3[nH]2)CC1` [Example I-460]: less than 100 nM; `CCc1cc(C)ncc1-c1cc(C(=O)N2CCN(c3ncc(F)cc3OC)CC2)cc2cc(C3=CCCN(C(=O)CCn4ccnn4)C3)n(CC3CC3)c12` [Example I-533]: less than 100 nM.
Still for that read-out and setting: next, `CCOc1ccncc1-c1cc(C2=CCCN(C(=O)CCn3cccn3)C2)c(F)c2[nH]c(C(=O)N3CCN(c4cncnc4OC)CC3)cc12` [Example I-486]: less than 100 nM; `COc1ccccc1-c1cc(C2=CCCN(C(=O)CCn3cccn3)C2)c(F)c2[nH]c(C(=O)N3CCN(c4cc5cc[nH]c5nc4C#N)CC3)cc12` [Example I-494]: greater than 100000 nM.
Turning to `COc1cccnc1N1CCN(C(=O)c2cc3c(C4=CCN(C)CC4C)cc(C4=CCCN(C(=O)CCn5ccnn5)C4)c(F)c3[nH]2)CC1` (centres unmarked) [Example I-1150], the IC50 was less than 100 nM.
On the same count and under the same terms, next, `CCc1ccncc1-c1cc(C(=O)N2Cc3cnn(C)c3C2)cc2cc(C3=CCCN(C(=O)CCn4ccnn4)C3)n(CC3CC3)c12` [Example I-727]: less than 100 nM.
On the same count and under the same terms, next, `COc1cc(F)cnc1N1CCN(C(=O)c2cc3c(-c4ccc(C)c5ncccc45)cc(C4=CCCN(C(=O)CCn5ccnn5)C4)c(F)c3[nH]2)CC1` [Example I-635]: less than 100 nM.
On to `COc1ccccc1-c1cc(C2=CCCN(C(=O)CCn3ccnn3)C2)c(F)c2sc(C(=O)N(C)C)cc12` [Example I-337, 6-(1-(3-(1H-1,2,3-triazol-1-yl)propanoyl)-1,2,5,6-tetrahydropyridin-3-yl)-7-fluoro-4-(2-methoxyphenyl)-N,N-dimethylbenzo[b]thiophene-2-carboxamide], for which the IC50 is less than 100 nM.
The same measure, in the same setting: next, `COc1ccccc1-c1cc(C2=CCCN(C(=O)CCn3ccnn3)C2)c(F)c2[nH]c(C(=O)N3CCN(c4cc(=O)[nH]cc4F)CC3)cc12` [Example I-779]: less than 100 nM; `COc1cccnc1N1CCN(C(=O)c2cc3ccc(C4=CCCN(C(C)=O)C4)c(F)c3[nH]2)CC1` [Example I-902]: 1000 to 10000 nM.
On the same count and under the same terms, next, `COc1ccncc1-c1cc(C2=CCCN(C(=O)CCn3ccnn3)C2)c(F)c2[nH]c(C(=O)N3CCN(c4nc(C)ccc4OC)CC3)cc12` [Example I-433]: greater than 100000 nM; `CN(C)C(=O)c1cc2cc(C3=CCCN(C(=O)CCn4ccnn4)C3)cc(NCc3ccc(C(F)(F)F)nc3)c2o1` [Example I-893]: less than 100 nM; `COc1cccnc1N1CCN(C(=O)c2cc3c(C4CCCCC4)cc(C4=CCCN(C(=O)CCn5ccnn5)C4)c(F)c3[nH]2)CC1` [Example I-579]: less than 100 nM.
On the same count and under the same terms, next, `COc1ccccc1-c1cc(C2=CCCN(C(=O)CCn3ccnn3)C2)c(F)c2[nH]c(C(=O)N3CCC(Nc4ncccn4)CC3)cc12` [Example I-849]: less than 100 nM; `Cc1ccc(-c2cc(C3=CCCN(C(=O)CCn4ccnn4)C3)cc3cc(C(=O)N(C)C)oc23)cn1` [Example I-1084]: less than 100 nM; `COc1ccccc1-c1cc(C2=CCCN(C(=O)CCn3ccnn3)C2)c(F)c2[nH]c(C(=O)N3CCN(c4cc(C)cn5ncnc45)CC3)cc12` [Example I-950]: less than 100 nM.
Consider `CNc1ccc(-c2cc(C3=CCCN(C(=O)CCn4ccnn4)C3)c(F)c3[nH]c(C(=O)N4CCN(c5ncccc5OC)CC4)cc23)c(OC)c1` [Example I-580], for which the IC50 is less than 100 nM.
As to `COc1ccccc1-c1cc(C2=CCCN(C(=O)CCn3ccnn3)C2)c(F)c2[nH]c(C(=O)N3CCN(c4cccnc4OC)CC3)cc12` [Example I-347], the half-maximal inhibitory concentration (IC50) was less than 100 nM.
Still for that read-out and setting: next, `COc1cccnc1N1CCN(C(=O)c2cc3c(-c4cccc(F)c4OC)cc(C4=CCCN(C(=O)CCn5ccnn5)C4)c(F)c3[nH]2)C(C)C1` (centres unmarked) [Example I-973]: 100 to 1000 nM.
Same read-out and setting: next, `CCC/C=C/c1cc(C2=CCCN(C(=O)CCn3ccnn3)C2)c(F)c2[nH]c(C(=O)N3CCN(c4ncc(F)cc4OC)CC3)cc12` [Example I-677]: less than 100 nM.
Still for that read-out and setting: next, `COc1cc2c(-c3cc(C4=CCCN(C(=O)CCn5ccnn5)C4)c(F)c4[nH]c(C(=O)N5CCN(c6ncc(F)cc6OC)CC5)cc34)ccnc2cc1F` [Example I-691]: less than 100 nM; `COc1cc(F)cnc1N1CCN(C(=O)c2cc3c(-c4ccccc4CN4CCOCC4)cc(C4=CCCN(C(=O)CCn5ccnn5)C4)c(F)c3[nH]2)CC1` [Example I-1123]: less than 100 nM.
`CCc1ccc(-c2cc(C(=O)N3CCN(c4ncc(F)cc4OC)CC3)cc3cc(C4=CCCN(C(C)=O)C4)n(CC4CC4)c23)c(C)n1` [Example I-793]: the IC50 is less than 100 nM.
On the same count and under the same terms, next, `COc1ccc(-c2cc(C3=CCCN(C(=O)CCn4ccnn4)C3)cc3cc(C(=O)N(C)C)oc23)c(C#N)c1` [Example I-854]: less than 100 nM; `CCOc1ccc(-c2cc(C3=CCCN(C(=O)CCn4ccnn4)C3)c(F)c3[nH]c(C(=O)N4CCN(c5ncc(F)cc5OC)CC4)cc23)c(OCC)c1` [Example I-618]: less than 100 nM.
In the case of `COc1ccccc1-c1cc(C2=CCCN(C(=O)CCn3ccnn3)C2)c(F)c2[nH]c(C(=O)N3CCc4ccc(N)cc4C3)cc12` [Example I-1012], the IC50 was less than 100 nM.
Turning to `COc1ccccc1-c1cc(C2=CCCN(C(=O)CCn3ccnn3)C2)c(F)c2[nH]c(C(=O)N3CCN(c4ccccc4F)CC3)cc12` [Example I-418], the IC50 was less than 100 nM.

One may read the IC50 as the point on the concentration scale where inhibition reaches its midpoint.

The record behind these values is patent publication US20250214977A1, “STAT6 INHIBITORS AND USES THEREOF” (Kymera Therapeutics, Inc., priority 2024, published 2025).
